According to article PMC9404985, “Development of Dicationic Bisguanidine-Arylfuran Derivatives as Potent Agents against Gram-Negative Bacteria” (Antibiotics, 2022):

Tests used:
Test in all cases: MIC of established antibiotics, micro-broth dilution
[1] = test system: Escherichia coli CCUG # 17620; conditions: CCUG17620, read-out: MIC Escherichia coli CCUG 17620
[2] = test system: Escherichia coli CCUG # 67180; conditions: CCUG67180, read-out: MIC Escherichia coli CCUG 67180
[3] = test system: Klebsiella pneumoniae CCUG # 225T; conditions: read-out: MIC Klebsiella pneumoniae CCUG 225T
[4] = test system: Klebsiella pneumoniae CCUG # 58547; conditions: CCUG58547, read-out: MIC Klebsiella pneumoniae CCUG 58547
[5] = test system: Pseudomonas aeruginosa CCUG # 17619; conditions: CCUG17619, read-out: MIC Pseudomonas aeruginosa CCUG 17619
[6] = test system: Pseudomonas aeruginosa CCUG # 59347; conditions: CCUG59347, read-out: MIC Pseudomonas aeruginosa CCUG 59347
[7] = test system: Acinetobacter baumannii CCUG # 57250; conditions: CCUG57250, read-out: MIC Acinetobacter baumannii CCUG 57250
[8] = test system: Acinetobacter baumannii CCUG # 57035; conditions: CCUG57035, read-out: MIC Acinetobacter baumannii CCUG 57035
[9] = test system: Enterobacter cloacae CCUG # 6323T; conditions: read-out: MIC Enterobacter cloacae CCUG 6323T
[10] = test system: Enterobacter hormaechei CCUG # 58962; conditions: CCUG58962, read-out: MIC Enterobacter hormaechei CCUG 58962

MIC [1] [µM] | MIC [2] [µM] | MIC [3] [µM] | MIC [4] [µM] | MIC [5] [µM] | MIC [6] [µM] | MIC [7] [µM] | MIC [8] [µM] | MIC [9] [µM] | MIC [10] [µM] | SMILES
11 to 44 | 350 | 350 | 350 | 350 | 350 | 175 | 175 | 350 | 350 | CC1(C)S[C@@H]2[C@H](NC(=O)[C@H](N)c3ccc(O)cc3)C(=O)N2[C@H]1C(=O)O [Amoxicillin]
0.16 | 10 to 20 | 0.16 to 0.32 | > 80 | 2.6 to 5.2 | 335 | 40 | 335 | 0.6 to 1.2 | 0.3 | C[C@@H](O)[C@H]1C(=O)N2C(C(=O)O)=C(S[C@@H]3CN[C@H](C(=O)N(C)C)C3)[C@H](C)[C@H]12 [Meropenem]
